The source of these data is paper PMC8597055, “Exploration of Pyrazolo[1,5‐a]pyrimidines as Membrane‐Bound Pyrophosphatase Inhibitors” (Chemmedchem, 2021).

Data set [1] deals with T1, Thermotoga maritima mPPase (TmPPase) (Thermotoga maritima, UniProt Q9S5X0). Kind of data set: TmPPase inhibition assay (96-well). In kind it is biochemical. The following applies: for pIC50: TmPPase inhibition, NA = IC50 not assigned. The source says:
We started from the previously identified 5‐arylisoxazole‐3‐carboxylate core present in 2–5 (Figure 1, highlighted in blue). Using KNIME,[30] we did a substructure search for commercial analogues in the ZINC12 database[31] […] Therefore, we manually picked compounds from a diverse collection provided by a single vendor (Ambinter, 174 matches for the substructure query). Out of the search results, we selected fifteen isoxazoles for testing in vitro. For all compounds in this manuscript, we tested activity using a 96‐well based assay that detects the inhibition of TmPPase.[22, 23, 24]
(§1) All commercially obtained compounds had purities >90 % as specified by the vendor. Synthesized compounds were >95 % pure as determined by LC–MS and characterized by HRMS. The inhibition assay was carried out with purified TmPPase as previously reported.[22, 23, 24] The best hits 17 a, 19 a, and 20 a, were validated using eight compound concentrations in triplicate. Further hit validation was done against the purified mPPase from P. falciparum (PfPPase‐VP1) expressed in baculovirus‐infected insect cells (expression, purification and further enzyme analysis will be described in more detail elsewhere). 4 μL of the purified PfPPase‐VP1 (2.0 mg/mL) was reactivated in 96 μL of reactivation buffer, i. e. 20 mM 2‐(N‐morpholino)ethanesulfonic acid (MES) pH 6.5, 3.5 % (v/v) glycerol, 2 mM dithiothreitol (DTT) and 12 mg/mL L‐α‐phosphatidylcholine from soybean. For each tube strip, 3 μL of the reactivated PfPPase‐VP1 was added into 12 μL of reaction buffer (200 mM Tris‐Cl pH 8.0, 8.0 mM MgCl2, 333 mM KCl, 67 mM NaCl) and 25 μL of inhibitor solution. The reaction mixtures were incubated at 50 °C for 5 min and the assay was started with the addition of 10 μL of 2 mM sodium pyrophosphate and further incubation at 50 °C for 45 min. The reaction termination and colour development were done as earlier described.[22, 23, 24]
6 IC50 plots from the TmPPase inhibition assay
The blue and black curves refer to compounds presented already in the main article and only shown in the Supporting Information, respectively. IC50, half maximal inhibitory concentration; CI95%, half maximal inhibitory concentration expressed as a 95% confidence interval (given in square brackets); […]
IC50 determinations were done using R 3.6.1[2] and the n-parameter logistic regression (nplr) package[3] version 0.1.7. In this package, the weighted nplr, given x (compound concentrations) and y values (activity) is calculated using Richard’s equation (eq 1) where B and T are the bottom and top asymptotes, respectively; b and xmid are the Hill slope and the x coordinate at inflexion point, respectively; and s is an asymmetric coefficient. The model parameters were simultaneously optimized using non-linear minimization, using a sum of squared errors.[4] The standard error of the model, defined as the squared error on the fitted values, is used to estimate a confidence interval at 95% on the predicted IC50 values.

Data set [2] addresses purified mPPase from P. falciparum (PfPPase-VP1) (Plasmodium falciparum, UniProt Q8IKR1). Kind of data set: PfPPase-VP1 inhibition assay. In kind it is biochemical. The following applies: three replicates. As for the experimental part:
Further hit validation was done against the purified mPPase from P. falciparum (PfPPase‐VP1) expressed in baculovirus‐infected insect cells. […] Overall, these compounds have higher IC50 values for PfPPase‐VP1 than for TmPPase.
as §1

Data set [3] relates to Plasmodium falciparum parasite strain 3D7. Kind of data set: P. falciparum survival (growth) assay in erythrocyte culture, SYBR Green I. The class given is cell-based. As to conditions: 72 h, strain 3D7 in human erythrocytes. As for the experimental part: Plasmodium falciparum parasite strain 3D7 was used for testing the antiplasmodial activity of the test compounds. The parasite was maintained in culture as described previously.[37] Briefly, parasites were cultured in O+ human erythrocytes at 5 % haematocrit in RPMI‐1640 medium supplemented with 0.5 % Albumax II (Gibco, Carlsbad, CA, USA), 200 μM hypoxanthine (Sigma, St. Louis, MO, USA) and 20 μg/mL gentamycin (Gibco). Parasites were synchronized with the sorbitol method as described.[38] Test compounds were dissolved in DMSO to make a stock solution of 10 mM or 50 mM. Two‐fold serial dilutions of the test compounds were made in the culture medium to cover either the range of 100 μM–100 nM or 400 μM–390 nM. 50 μL of each dilution were mixed in 96‐well plate with 150 μL of 2 % haematocrit of 0.5 % parasitemia (ring stage). Compound dilutions were also mixed with 150 μL of 2 % haematocrit of uninfected erythrocytes to serve as baselines for the activity of the coloured compounds. DMSO concentration in the highest compound concentration was 0.8 %. After 72 h incubation at 37 °C, the parasite growth was quantified using fluorescent SYBR Green I®‐based assay as described.[39] The half‐maximal inhibitory concentration (IC50) of the test compounds was assessed using the non‐linear regression fit model in Prism 7 (GraphPad Software, San Diego, CA, USA). The potent anti‐malarial drug, artemisinin, was used in parallel as a positive control. Each concentration of the test compounds was tested in duplicate and the assay was repeated three times. The mean and standard deviation of the three repeats were used to calculate the IC50.

Data set [4] can be described thus: Colloidal aggregation by nephelometry under TmPPase assay conditions. In kind it is physicochemical. As to conditions: for concentration of aggregate formation: TmPPase assay conditions. As to the method: In order to rule out a cause of false positives, colloidal aggregation in the TmPPase model assay was evaluated for compounds 17 a, 19 a and 20 a at six concentrations (100 μM, 50 μM, 20 μM, 10 μM, 1 μM, and 0.1 μM) using the assay conditions (Figure S3).
3 Aggregation data for 17a, 19a and 20a (Figure S3)
Potential colloidal aggregation in the TmPPase model system was studied by nephelometric methods using Nepheloskan Ascent® (Labsystems, Finland). The original assay conditions were simulated, and the light scattering of potential aggregates in the mixture was studied at six concentrations (100 µM, 50 µM, 20 µM, 10 µM, 1 µM and 0.1 µM). Aggregation of the blank and compounds 17a, 19a and 20a was measured as quadruplicates from one independent experiment at three different voltages (300 V, 400 V and 500 V) at room temperature. […]
values at 10 µM, 1 µM and 0.1 µM were similar to those observed by the blank, indicating merely […]
Figure S3. Aggregation data for compounds 17a, 19a and 20a. The data, measured in relative nephelometric units (RNU), is shown as the mean ± SD and normalized to the blank.
(1 picture or pasted object on this page, not shown here)

In data set [5] the target is T1, Thermotoga maritima mPPase (TmPPase). Set-up: method as in PMID 31131322, PMID 32292570. The following applies: previously reported inhibitors, read-out: IC50 [CI95%]; cited from earlier work.
The subject of data set [6] is Plasmodium falciparum parasite strain 3D7. Set-up: method as in PMID 32292570. As to conditions: cited from earlier work.
Where [7] appears, read: purified PfPPase-VP1, 50 °C, read-out: IC50.
Where [8] appears, read: Plasmodium falciparum, 3D7, Erythrocyte.
The mark [9] stands for this setting: IC50, purified PfPPase-VP1, 50 °C.

pIC50: −log10 of the molar value. Values joined by “and” are separate entries in the source; they are usually repeats but may differ in a detail not shown here. Equal entries are not always repeated. Where two headings read alike, the source gives them in different places.

T1 sequence (Q9S5X0 whole entry): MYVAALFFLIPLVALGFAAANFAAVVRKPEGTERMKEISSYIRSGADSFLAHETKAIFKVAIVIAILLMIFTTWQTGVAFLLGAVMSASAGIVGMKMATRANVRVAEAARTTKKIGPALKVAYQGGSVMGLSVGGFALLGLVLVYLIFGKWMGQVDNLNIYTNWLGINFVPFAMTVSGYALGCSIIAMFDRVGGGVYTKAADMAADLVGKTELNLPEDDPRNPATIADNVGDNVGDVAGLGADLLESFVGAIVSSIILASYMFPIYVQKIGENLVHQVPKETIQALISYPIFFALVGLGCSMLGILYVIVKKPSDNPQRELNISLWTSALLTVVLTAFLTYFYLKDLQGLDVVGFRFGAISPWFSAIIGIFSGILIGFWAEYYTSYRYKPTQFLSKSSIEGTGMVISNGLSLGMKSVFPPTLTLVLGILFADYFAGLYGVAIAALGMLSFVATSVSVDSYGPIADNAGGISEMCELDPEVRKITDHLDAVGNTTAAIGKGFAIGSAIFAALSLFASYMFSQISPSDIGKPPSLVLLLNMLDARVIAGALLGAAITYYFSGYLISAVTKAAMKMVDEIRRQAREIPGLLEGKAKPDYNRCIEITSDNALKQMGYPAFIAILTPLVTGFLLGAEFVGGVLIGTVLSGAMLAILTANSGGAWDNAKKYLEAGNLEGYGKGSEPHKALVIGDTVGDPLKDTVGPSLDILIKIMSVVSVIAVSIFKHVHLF
purified mPPase from P. falciparum (PfPPase-VP1), sequence (Q8IKR1 entry or part of it): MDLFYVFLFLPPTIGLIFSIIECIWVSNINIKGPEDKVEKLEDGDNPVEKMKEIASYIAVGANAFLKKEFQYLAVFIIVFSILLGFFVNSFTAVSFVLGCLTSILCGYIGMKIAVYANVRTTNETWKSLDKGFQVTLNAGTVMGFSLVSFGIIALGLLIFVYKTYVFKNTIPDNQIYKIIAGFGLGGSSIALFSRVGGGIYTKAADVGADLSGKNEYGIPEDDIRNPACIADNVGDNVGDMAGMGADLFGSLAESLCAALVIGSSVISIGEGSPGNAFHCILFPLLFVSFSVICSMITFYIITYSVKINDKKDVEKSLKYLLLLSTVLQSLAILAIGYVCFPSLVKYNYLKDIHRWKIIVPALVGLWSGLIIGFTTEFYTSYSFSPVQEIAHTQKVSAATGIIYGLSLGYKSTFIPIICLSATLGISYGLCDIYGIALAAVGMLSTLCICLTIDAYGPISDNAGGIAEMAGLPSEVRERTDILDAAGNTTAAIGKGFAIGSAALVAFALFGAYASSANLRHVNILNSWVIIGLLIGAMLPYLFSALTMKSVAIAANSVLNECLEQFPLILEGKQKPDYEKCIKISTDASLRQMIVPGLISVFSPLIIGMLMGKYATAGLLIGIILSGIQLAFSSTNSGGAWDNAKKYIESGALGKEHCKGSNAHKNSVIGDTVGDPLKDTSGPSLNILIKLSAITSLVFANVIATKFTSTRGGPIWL

What is called pIC50 is the negative decadic logarithm of the IC50, by convention in mol/L. `Cc1cc(C)cc(-c2cc(C(=O)Oc3ccccc3Br)nc3cc(Br)nn23)c1` [17 a, 2‐Bromophenyl 2‐bromo‐7‐(3,5‐dimethylphenyl)pyrazolo[1,5‐a]pyrimidine‐5‐carboxylate]: the negative-log IC50 (pIC50) in data set [1] (read-out: IC50 [CI95%]) was 4.85; in data set [2] (setting [7]), 4.24; in data set [3] (setting [8]) it was 4.51; in data set [3], 4.51. Moreover, the “fold loss in activity compared to 2” value in data set [1] (TmPPase, 17 a versus 2) worked out at 2 fold. Further, the “concentration of aggregate formation” value in data set [4] (six concentrations 100–0.1 μM) was “above 20 μM”. For the same compound, the colloidal aggregation entry in data set [4] (at 10 µM, 1 µM and 0.1 µM) is listed as “negligible/no detectable aggregation”; in data set [4] (at 100 µM, 50 µM and 20 µM) it was “aggregate formation”.
For the compound `C=Cc1cc2nc(C(=O)O)cc(-c3cc(C)cc(C)c3)n2n1` [19 a, 7‐(3,5‐Dimethylphenyl)‐2‐vinylpyrazolo[1,5‐a]pyrimidine‐5‐carboxylic acid], the pIC50 in data set [1] (IC50 [CI95%]) is 4.85; in data set [2] (setting [9]), 3.89. For the same compound, in data set [4] (six concentrations 100–0.1 μM), the colloidal aggregation entry is listed as “no detectable aggregation”.
Consider `C=Cc1cc2nc(C(=O)Oc3ccccc3Br)cc(-c3cc(C)cc(C)c3)n2n1` [20 a, 2‐Bromophenyl 7‐(3,5‐dimethylphenyl)‐2‐vinylpyrazolo[1,5‐a]pyrimidine‐5‐carboxylate], for which the figures for the pIC50 in data set [1] (IC50 [CI95%]) and in data set [2] (setting [9]) were 4.74 and 4.13, respectively. Moreover, the “concentration of aggregate formation” value in data set [4] (six concentrations 100–0.1 μM) is “above 20 μM”. Moreover, the colloidal aggregation result is on record as “negligible/no detectable aggregation” in data set [4] (at 10 µM, 1 µM and 0.1 µM); “aggregate formation” in data set [4] (at 100 µM, 50 µM and 20 µM).
`Nc1nc2ccc(CNC(=O)c3cc4ccccc4[nH]3)cc2s1` [compound 1]: the pIC50 in data set [5] is 5.57.
As for `Cc1cc(C)cc(-c2cc(C(=O)Oc3ccccc3Br)no2)c1` [compound 2], in data set [5], the pIC50 was 5.16. In data set [6], the “activity ex vivo against P. falciparum” value is “retained activity”.
With `Cc1cccc(-c2cc(C(=O)Oc3ccccc3Br)no2)c1` [compound 3], the pIC50 in data set [5] is 5.21.
`CC(C)(C)c1cccc(-c2cc(C(=O)Oc3ccccc3Br)no2)c1` [compound 4]: the pIC50 in data set [5] was 5.17.
For `CCOC(=O)c1cc(-c2ccc(OC)c(S(=O)(=O)Nc3ccc4c(c3)OCO4)c2)on1` [compound 5], the pIC50 in data set [5] is 4.44.
For the compound `COc1cc(C2c3c(-c4cc(Cl)c(C)cc4O)n[nH]c3C(=O)N2Cc2ccccc2)ccc1O` (centres unmarked) [compound 12], the pIC50 in data set [1] (read-out: IC50 [CI95%]) is > 4.60 and 4.60; in data set [2] (setting [7]) it was 3.74; in data set [3] (setting [8]) it was 5.44. In addition, the IC50 entry in data set [2] (purified PfPPase-VP1, 50 °C) is listed as “comparably weak”.
